Assay results published in ChEMBL document CHEMBL1201862, “PubChem BioAssay data set” (2004).
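Following 48 hours of exposure in 96-well plates, responses at five concentrations were used to interpolate endpoints linearly. Abbreviation: GI50, concentration required for 50% inhibition of growth.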 Calls of active or inactive are those of the source. Cut-off read from the data, not from the text of the source: active = GI50 up to about 1.1 µM and inactive = higher.

Columns and labels:
Experiment in all cases: NCI tumour cell line growth inhibition, 48 h
[1] = test system: CCRF-CEM
[2] = test system: NCI-H226
[3] = test system: SN12C
[4] = test system: A549
[5] = test system: KM12
[6] = test system: MCF7
[7] = test system: COLO 205
[8] = test system: T47D
[9] = test system: Malme-3M
[10] = test system: UO-31
[11] = test system: UACC-62
[12] = test system: SK-MEL-5
[13] = test system: SK-OV-3
[14] = test system: HCT-15
[15] = test system: PC-3
[16] = test system: EKVX
[17] = test system: SNB-19
[18] = test system: M14
[19] = test system: HL-60
[20] = test system: HOP-62
[21] = test system: HCT-116
[22] = test system: HT-29
[23] = test system: ACHN
[24] = test system: Hs-578T
[25] = test system: UACC-257
[26] = test system: NCI-H522
[27] = test system: SNB-75
[28] = test system: SF-539
[29] = test system: U-251
[30] = test system: SF-295
[31] = test system: CAKI-1
[32] = test system: IGROV-1
[33] = test system: DU-145
[34] = test system: SK-MEL-2
[35] = test system: OVCAR-5
[36] = test system: OVCAR-4
[37] = test system: MDA-MB-231
[38] = test system: NCI/ADR-RES
[39] = test system: MOLT-4
[40] = test system: NCI-H23
[41] = test system: SF-268
[42] = test system: MDA-MB-435
[43] = test system: RXF 393
[44] = test system: MDA-N
[45] = test system: SW-620
[46] = test system: SK-MEL-28
[47] = test system: BT-549
[48] = test system: LOX IMVI
[49] = test system: A498
[50] = test system: OVCAR-8
[51] = test system: 786-0
[52] = test system: TK-10

CNc1cc(Cl)ccc1C(=O)N1CCC[C@H]1CO
GI50 [1]: > 100 µM (inactive) | GI50 [2]: 78.2 µM (inactive) | GI50 [3]: > 100 µM (inactive) | GI50 [4]: > 100 µM (inactive) | GI50 [5]: > 100 µM (inactive) | GI50 [6]: > 100 µM (inactive) | GI50 [7]: > 100 µM (inactive) | GI50 [8]: > 100 µM (inactive) | GI50 [9]: > 100 µM (inactive) | GI50 [10]: > 100 µM (inactive) | GI50 [11]: > 100 µM (inactive) | GI50 [12]: 74.1 µM (inactive) | GI50 [13]: > 100 µM (inactive) | GI50 [14]: > 100 µM | GI50 [15]: > 100 µM (inactive) | GI50 [16]: > 100 µM (inactive) | GI50 [17]: > 100 µM (inactive) | GI50 [18]: > 100 µM (inactive) | GI50 [19]: 81.7 µM (inactive) | GI50 [20]: > 100 µM (inactive) | GI50 [21]: > 100 µM (inactive) | GI50 [22]: > 100 µM (inactive) | GI50 [23]: > 100 µM (inactive) | GI50 [24]: > 100 µM (inactive) | GI50 [25]: > 100 µM (inactive) | GI50 [26]: > 100 µM (inactive) | GI50 [27]: 53.5 µM (inactive) | GI50 [28]: > 100 µM (inactive) | GI50 [29]: > 100 µM (inactive) | GI50 [30]: > 100 µM (inactive) | GI50 [31]: > 100 µM (inactive) | GI50 [32]: > 100 µM (inactive) | GI50 [33]: > 100 µM (inactive) | GI50 [34]: > 100 µM (inactive) | GI50 [35]: > 100 µM (inactive) | GI50 [36]: 29.2 µM (inactive) | GI50 [37]: > 100 µM (inactive) | GI50 [38]: > 100 µM (inactive) | GI50 [39]: > 100 µM (inactive) | GI50 [40]: > 100 µM (inactive) | GI50 [41]: > 100 µM (inactive) | GI50 [42]: > 100 µM (inactive) | GI50 [43]: > 100 µM (inactive) | GI50 [44]: 97.1 µM (inactive) | GI50 [45]: > 100 µM (inactive) | GI50 [46]: > 100 µM (inactive) | GI50 [47]: > 100 µM (inactive) | GI50 [48]: > 100 µM (inactive) | GI50 [49]: > 100 µM (inactive) | GI50 [50]: > 100 µM (inactive) | GI50 [51]: > 100 µM (inactive) | GI50 [52]: > 100 µM (inactive)
